Data set [1] in a line: Heparin/heparinoid concentration in blood after oral administration of capsules to beagles (citrated plasma, chromogenic substrate). Type of data set: in vivo, beagle dogs. Particulars: for heparin or heparinoid concentration in the blood, without surfactant (in words): without the addition of a surfactant; for heparin level in the blood, without surfactant: in the absence of added surfactant. On the procedure: (§1) A. 2 of the capsules obtained as described in Examples 1a-1d or 3a-3b (total dose 28,000 IU of heparin or 700 mg of heparinoid) were administered orally to each of a number of beagles weighing about 7 kg. The concentration of active compound in the blood of the dogs was determined before and 30 minutes, 1 hour and 2, 3, 5, 8, 14 and 24 hours after the administration of heparin. The heparin was determined in citrated plasma, using a chromogenic substrate (cf. Thromb. Res. 8 (1976), 413 and Volume 2 of Reports, Thrombosis and Hemostasis Congress, Munster, 1982, Schattauer Verlag, Stuttgart, pages 238-246). The thrombin time was also determined (cf. Kleiner Gerinnungstatus, published by Behringwerke, 1982, page 40). The heparin or heparinoid concentration (c) in the blood and the quotient T of the thrombin time of the treated animals to that of the untreated animals reached their highest values after 2 hours.
(§2) Since, in contrast to heparin, heparinoids prolong the bleeding time (in this case the thrombin time) only slightly, if at all, they are not standardized on the basis of anticoagulant activity.

The test system of the next data set is thrombin time. As to the kind of experiment: Thrombin time after oral administration of capsules to beagles. Type of data set: in vivo, beagle dogs. Particulars: without the addition of a surfactant. On the procedure: as §1, §2

For the substance heparin [heparin used in Example 1a], the “heparin or heparinoid concentration in the blood, without surfactant (in words)” value in data set [1] is reported as “did not result in a measurable heparin or heparinoid concentration in the blood”. The “thrombin time, without surfactant (in words)” value in the data set on thrombin time is “did not change the thrombin time”.

As to heparin [heparin used in Example 1b], the “heparin or heparinoid concentration in the blood, without surfactant (in words)” value in data set [1] is on record as “did not result in a measurable heparin or heparinoid concentration in the blood”. In addition, in the data set with thrombin time, the “thrombin time, without surfactant (in words)” value is “did not change the thrombin time”.

In the case of heparin [heparin used in Example 1c], in data set [1], the “heparin level in the blood, without surfactant” value is on record as 0.15 IU/ml. For the same substance, in the data set on thrombin time, the “thrombin time, without surfactant (in words)” value was “no change in the thrombin time”.

Consider heparin [heparin used in Example 1d], for which, in data set [1], the “heparin level in the blood, without surfactant” value is on record as 0.25 IU/ml. For the same substance, in the data set with thrombin time, the “thrombin time, without surfactant (in words)” value was “no change in the thrombin time”.

As for “mucopolysaccharide polysulfate [heparinoid used in Example 3b]”, in data set [1], the “heparin or heparinoid concentration in the blood, without surfactant (in words)” value is on record as “did not result in a measurable heparin or heparinoid concentration in the blood”. Besides, in the data set on thrombin time, the “thrombin time, without surfactant (in words)” value was “did not change the thrombin time”.

For the substance “sodium pentosan polysulfate [heparinoid used in Example 3a]”, the “heparin or heparinoid concentration in the blood, without surfactant (in words)” value in data set [1] was “did not result in a measurable heparin or heparinoid concentration in the blood”. Further, in the data set with thrombin time, the “thrombin time, without surfactant (in words)” value was “did not change the thrombin time”.
